These results are taken from PubChem BioAssay AID200 (DTP/NCI, 2004).

Molecules are shown by their SMILES. Values joined by “and” are separate entries in the source; they are usually repeats but may differ in a detail not shown here. Equal entries are not always repeated. Inconclusive results and toxic doses are left out. Where a SMILES comes first, the peptide text is derived from it. [ ]: non-standard residue; d: D form. The star is where a group is joined. Cbz = O=C(OCc1ccccc1)*; Nva = CCC[CH](N)C(=O)O

The subject of the test is B6C3F1 mice, B16 melanoma ip, median survival T/C. Put plainly: NCI In Vivo Anticancer Drug Screen. Data for tumor model B16 Melanoma (intraperitoneal) in B6C3F1 mice. Conditions: endpoint: median survival time, schedule: Q01DX009 (ip), higher = longer survival. The method in brief: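 Mice bearing transplanted tumor were dosed with compound or vehicle, and survival was recorded. Activity is expressed as the treated-group measurement (T) divided by the vehicle control measurement (C).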

[1] abbreviates: dose: 6.25 mg/kg/injection, vehicle: other.
The mark [2] stands for this setting: dose: 12.5 mg/kg/injection, vehicle: other.
Setting [3] is: dose: 25.0 mg/kg/injection, vehicle: other.
[4] abbreviates: dose: 50.0 mg/kg/injection, vehicle: other.
Setting [5] is: dose: 0.06 mg/kg/injection, vehicle: saline.
[6] abbreviates: dose: 0.12 mg/kg/injection, vehicle: saline.
The mark [7] stands for this setting: dose: 0.25 mg/kg/injection, vehicle: saline.
Setting [8] is: dose: 0.5 mg/kg/injection, vehicle: saline.
Where [9] appears, read: dose: 12.5 mg/kg/injection, vehicle: saline with Tween-80.
[10] abbreviates: dose: 25.0 mg/kg/injection, vehicle: saline with Tween-80.
[11] abbreviates: dose: 50.0 mg/kg/injection, vehicle: saline with Tween-80.
Where [12] appears, read: dose: 100.0 mg/kg/injection, vehicle: saline with Tween-80.
The mark [13] stands for this setting: dose: 200.0 mg/kg/injection, vehicle: saline with Tween-80.

In the case of `CN(C)N=Nc1ccnc2ccc(I)cc12`, the T/C by setting is: (dose: 3.13 mg/kg/injection, vehicle: other) 111 % of control; under setting [1], 115 % of control; under setting [2], 109 % of control; under setting [3], 110 % of control; under setting [4], 114 % of control.

Regarding `[Cl][Hg][Cl]`, the T/C was 105 % of control (dose: 0.05 mg/kg/injection, vehicle: saline); 96 % of control under setting [5]; 97 % of control (dose: 0.1 mg/kg/injection, vehicle: saline); 104 % of control under setting [6]; 100 % of control (dose: 0.2 mg/kg/injection, vehicle: saline); 104 % of control under setting [7]. The T/C by setting is: (dose: 0.4 mg/kg/injection, vehicle: saline) 102 % of control; under setting [8], 86 % of control; (dose: 0.8 mg/kg/injection, vehicle: saline) 86 % of control.

For `O=S1(=O)CS(=O)(=O)OCCO1`, the T/C is, setting by setting: (dose: 6.25 mg/kg/injection, vehicle: Klucel (hydroxypropylcellulose) (HPC)) 111 % of control; (dose: 12.5 mg/kg/injection, vehicle: Klucel (hydroxypropylcellulose) (HPC)) 153 % of control and 161 % of control; (dose: 50.0 mg/kg/injection, vehicle: Klucel (hydroxypropylcellulose) (HPC)) 117 % of control.

In the case of `CN(C)N=Nc1ccc2c(c1)N(C)c1ccc(F)cc1S2`, the T/C by setting is: under setting [1], 106 % of control; under setting [2], 113 % of control; under setting [3], 115 % of control; under setting [4], 120 % of control; (dose: 100.0 mg/kg/injection, vehicle: other) 117 % of control.

On to `O=C(N/N=C/c1cccc(O)c1O)N/N=C/c1cccc(O)c1O`, for which the T/C is 118 % of control under setting [9]; 112 % of control under setting [10]; 116 % of control under setting [11]; 106 % of control under setting [12]; 106 % of control under setting [13].

As for `c1ccc2c3c(c4c(c2c1)CN(C1CCCCC1)CO4)OCN(C1CCCCC1)C3`, the T/C is 92 % of control (dose: 3.12 mg/kg/injection, vehicle: other) and 89 % of control under setting [1].

Turning to `CC[C@]1(O)C[C@H]2CN(CCc3c([nH]c4ccccc34)[C@@](C(=O)OC)(c3cc4c(cc3OC)N(C=O)[C@H]3[C@@](O)(C(=O)OC)[C@H](OC(C)=O)[C@]5(CC)C=CCN6CC[C@]43[C@@H]65)C2)C1`, the T/C by setting is: under setting [5], 160 % of control; under setting [6], 159 % of control and 176 % of control; under setting [7], 171 % of control and 196 % of control; under setting [8], 190 % of control; (dose: 0.5 mg/kg/injection, vehicle: water) 108 % of control; (dose: 31.25 micrograms/kg/injection, vehicle: water) 154 % of control. The T/C reads like this: (dose: 62.5 micrograms/kg/injection, vehicle: water) 186 % of control; (dose: 125.0 micrograms/kg/injection, vehicle: water) 193 % of control; (dose: 250.0 micrograms/kg/injection, vehicle: water) 227 % of control.

Regarding `O=C1CCCCC1C(=O)C(F)(F)F` (stereo not given), the T/C runs as follows: (dose: 4.5 mg/kg/injection, vehicle: saline + Tween-80 + alcohol) 103 % of control; (dose: 9.0 mg/kg/injection, vehicle: saline + Tween-80 + alcohol) 93 % of control; (dose: 18.0 mg/kg/injection, vehicle: saline + Tween-80 + alcohol) 87 % of control; (dose: 50.0 mg/kg/injection, vehicle: saline + Tween-80 + alcohol) 102 % of control.

In the case of `CCC(=O)[O-].CCC(=O)[O-].CCC(=O)[O-].CCC(=O)[O-].O=S(=O)(O)O.[Re].[Re]`, the T/C is, setting by setting: (dose: 64.8 mg/kg/injection, vehicle: suspension in saline) 93 % of control; (dose: 108.0 mg/kg/injection, vehicle: suspension in saline) 86 % of control; (dose: 300.0 mg/kg/injection, vehicle: suspension in saline) 86 % of control.

Consider `CCOC(=O)c1cn(C)c2c1C(O)=C(C(=O)OC)CC(=O)N2`, for which the T/C was 92 % of control under setting [10]; 96 % of control under setting [11]; 96 % of control under setting [12]; 96 % of control under setting [13]; 92 % of control (dose: 400.0 mg/kg/injection, vehicle: saline with Tween-80).

Regarding `CCCC(NC(=O)OCc1ccccc1)C(=O)NC(Cc1ccccc1)C(=O)O` (stereo not given) (Cbz-[Nva]-Phe-OH; configuration not given here), the T/C (dose: 100.0 mg/kg/injection, vehicle: Klucel (hydroxypropylcellulose) (HPC)) is 101 % of control; the T/C (dose: 200.0 mg/kg/injection, vehicle: Klucel (hydroxypropylcellulose) (HPC)) is 104 % of control; the T/C (dose: 400.0 mg/kg/injection, vehicle: Klucel (hydroxypropylcellulose) (HPC)) is 89 % of control.

For the compound `COC1=CCC23C(=O)C=CC(=O)C2(C1)C(=O)c1ccccc1C3=O` (stereo not given), the T/C reads like this: (dose: 1.56 mg/kg/injection, vehicle: saline with Tween-80) 99 % of control; (dose: 3.12 mg/kg/injection, vehicle: saline with Tween-80) 96 % of control; (dose: 6.25 mg/kg/injection, vehicle: saline with Tween-80) 93 % of control; under setting [9], 94 % of control.

Turning to `Nc1nc(N)c2cc(S(=O)(=O)c3ccccc3)ccc2n1`, the T/C by setting is: under setting [10], 88 % of control; under setting [11], 103 % of control and 105 % of control; under setting [13], 153 % of control and 171 % of control.
